Values of other authors as cited in US5211943A, “Pharmaceutical preparation for administration by percutaneous absorption and a method for their manufacture” (Chugai Seiyaku Kabushili Kaisha, priority 1986, dated 1993).

Legend:
[1] = test system: coronary vessels; settings: Japanese Patent Publication 58-17463
[2] = high temperature or high humidity, or in solution; Iyakuhin Kenkyu vol. 14, 1983
[3] = oral; rapid increase of blood level

stability [2]: relatively unstable
SMILES: O=C(NCCO[N+](=O)[O-])c1cccnc1 [Nicorandil, N-(2-hydroxyethyl)nicotinamide nitrate]
effect on coronary vessels, coronary veins and heart [1]: acts to dilate the coronary vessels and to inhibit contractions of the coronary veins, without much effect on the blood flow through the heart or on heart function | side effects when given orally [3]: orthostatic hypotension and headache
